These results are taken from US20250034159A1, “INHIBITORS OF EPIDERMAL GROWTH FACTOR RECEPTOR” (ORIC Pharmaceuticals, Inc., priority 2021, published 2025).

One assay relates to BaF3_EGFR d19/CS cells. Briefly: Biological Activity Assay D: BaF3 cell proliferation assay, EGFR exon 19 deletion/C797S (BaF3 d19/CS). Format: cell-based. The conditions noted are these: Ba/F3 EGFR; BaF3_EGFR d19/CS cells, ~72 hours, CellTiter-Glo; read-out: BaF3 d19/CS IC50. The procedure:
(§1) One frozen vial of cells should be thawed into one T25 flask in 10 mL media. Keep the flask upright in the incubator.
(§2) Method: One frozen vial of cells was thawed into one T25 flask in 10 mL media and the flask was kept upright in the incubator. Cells were split 1:10 every two to three days when cells reached confluency of around 1×10^6 cells/mL. Bravo protocol files were used with Greiner 384-well plates for all steps of compound preparation, cell plating and compound addition. […] 16 μL of DMSO were added (for compounds starting at 20 μM) or 28 μL DMSO (for compounds starting at 5 μM) to 96-well V-bottom polypropylene plate: wells 1A-1H (8 compounds/plate). […] 20 μL DMSO were added to the remainder of the wells (columns 2-12) in the 96-well V-bottom plate. A Bravo liquid handler was used to make 1:3 serial dilutions from columns 1 to 11 (12 remains as DMSO only) to prepare the DMSO dilution plate. 144 μL media were added to each well of a new 96-well V-bottom polypropylene plate to prepare the intermediate dilution plate. A Bravo or 96-head Integra liquid handler was used to add and mix 6 μL of test compound from the DMSO dilution plate to the intermediate dilution plate. (1:25 dilution). Cells were transferred from a flask into a 50 mL conical, vortex gently and the number of cells were counted, with a target cell number of about 1×10^6 cells per mL. The cells were diluted in culture medium in 50 mL conical or T25 flask, and the cell suspension was added to BRAVO reservoir and then use Bravo protocol to plate the appropriate number of cells shown below in 36 μl of medium per well as follows: Ba/F3-WT-EGFR 2000 cells per well of a 384 well plate; Ba/F3-LR/CS-EGFR 2000 cells per well of a 384 well plate; and Ba/F3-d19/CS-EGFR 1500 cells per well of a 384 well plate. An extra 10 mL of dead volume was utilized in each reservoir.
(§3) Using a Bravo liquid handler, 4 μl of test compound solution was added per well from the intermediate dilution plate to plated cells (1:10 dilution from the intermediate plate, final compound dilution 1:250 and final DMSO concentration per well is 0.4%). Using the 96 BRAVO Head, 25 μl were aspirated from the intermediate dilution plate and 4 μl each were dispensed into 4 wells (square pattern) in the 384-well plate. Any remaining test compound is dispensed into a secondary plate to prevent cross contamination of cells in the intermediate compound plate. After the compounds were added, the plate was shaken at 600 rpm gently for 60 see, and the plates were incubated in a tissue culture incubator, 37° C., 5% CO2, for ˜ 72 hours. After incubation, CTG 2.0 reagent was allowed to equilibrate to room temperature (˜3 hours) and cells to reach room temperature (˜10-15 minutes) and reagent was added to cells (40 μL/well) using a Bravo liquid handler. The plates were shaken to allow proper mixing (˜5 min) and let settle for 10 minutes and were read on Tecan plate reader using the appropriate luminescence method. Data from plate reader was transferred to an excel file and entered directly into Dotmatics using the protocols under EGFR Project/Cell Proliferation/named: “BaF3_EGFRwt_CP”, “BaF3_EGFR_d19/CS_CP”, “BaF3_EGFR_LR/CS_CP”. Curves were fit with a 4-parameter model and IC50s calculated by the Dotmatics software. DMSO wells were averaged to define the high control (100% growth). The average of the highest concentration of the positive control compound (afatinib) was used to define the 0% growth and used to lock the bottom of the curves. The tops of the curves were not fixed.
Background: Cellular ATP, detected with luciferase, serves as a proxy for viable cell number.

In assay [1] the target is recombinant human EGFR exon 19 deletion/C797S double mutant protein (Homo sapiens (Human), UniProt P00533, C797S/DEL746-750). The assay can be described thus: Biological Activity Assay C: biochemical assay against EGFR exon 19 deletion/C797S protein (EGFR d19/CS). On the procedure:
In Row A of a 384-well polypropylene plate, was added 48 μL of DMSO. In wells A1 and A24, were added 12 μL of DMSO. […] To a well in Row A were added 12 μL of each 10 mM test compound stock (100% DMSO). […] The final intermediate dilution plate contained 4×16-point compound serial dilutions in assay buffer. The DMSO concentration was 10%. The intermediate compound dilution plate was transferred to the Bravo and the “5 uL dispense into ARP.pro” protocol was run. To the black low volume assay ready plates, were added 5 μL of 40 uM Phosphosens peptide sensor/4 mM ATP working solution to each well. […] To column 24, was added 10 μL of assay buffer. The final DMSO concentration was 2.5%. […] The plates were sealed with the TopSeal-A Plus plate seals. […] Set for 90 cycles with 120 second interval. […] The slope of each curve was constructed using Dotmatics in each well, and each IC50s was calculated using a 4-parameter fit model.

The test system of another assay is BaF3_EGFR LR/CS cells. The assay can be described thus: Biological Activity Assay D: BaF3 cell proliferation assay, EGFR L858R/C797S mutant (BaF3 LR/CS). Format: cell-based. The conditions noted are these: Ba/F3 EGFR; BaF3_EGFR LR/CS cells, ~72 hours, CellTiter-Glo; read-out: BaF3 LR/CS IC50. The procedure: as §1, §2, §3
Another assay has as its system Ba/F3_EGFR WT cells. The assay can be described thus: Biological Activity Assay D: BaF3 cell proliferation assay, EGFR wild-type (BaF3 WT). Format: cell-based. The note with it: Ba/F3 EGFR; Ba/F3_EGFR WT cells, ~72 hours, CellTiter-Glo; read-out: BaF3 WT IC50. On the procedure:
as §1, §2, §3

Chain of recombinant human EGFR exon 19 deletion/C797S double mutant protein (P00533 other isoform, or with tags, fused parts or gaps C797S/del 1-668/del 746-750 limits assumed): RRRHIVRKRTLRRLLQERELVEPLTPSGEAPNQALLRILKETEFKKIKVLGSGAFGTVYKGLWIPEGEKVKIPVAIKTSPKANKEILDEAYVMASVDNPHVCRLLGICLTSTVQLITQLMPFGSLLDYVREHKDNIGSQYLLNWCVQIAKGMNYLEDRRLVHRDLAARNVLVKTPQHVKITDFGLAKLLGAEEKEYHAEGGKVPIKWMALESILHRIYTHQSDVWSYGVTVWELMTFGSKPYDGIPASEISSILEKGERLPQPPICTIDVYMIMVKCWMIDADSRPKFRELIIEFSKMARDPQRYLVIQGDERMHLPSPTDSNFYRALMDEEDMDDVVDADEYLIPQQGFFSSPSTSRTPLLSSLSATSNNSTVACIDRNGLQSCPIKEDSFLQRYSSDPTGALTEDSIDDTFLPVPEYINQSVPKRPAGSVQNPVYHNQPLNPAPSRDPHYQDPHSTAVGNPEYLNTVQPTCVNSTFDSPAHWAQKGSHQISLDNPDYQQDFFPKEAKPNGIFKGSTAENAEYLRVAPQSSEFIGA

Regarding `CC(=O)N1C=C(c2cc3c(-c4cn(C5CS(=O)(=O)C5)nc4-c4ccc(F)cc4)ncnc3o2)CCC1` [Example 155, 3-{4-[6-(1-acetyl-1,4,5,6-tetrahydropyridin-3-yl)furo[2,3-d]pyrimidin-4-yl]-3-(4-fluorophenyl)-1H-pyrazol-1-yl}-1λ6-thietane-1,1-dione], the IC50 stood at 63.8 nM in the assay with BaF3_EGFR d19/CS cells, 0.41 nM in assay [1], 65 nM in the assay with BaF3_EGFR LR/CS cells and 1160 nM in the assay with Ba/F3_EGFR WT cells.
On to `CS(=O)(=O)CCn1cc(-c2ncnc3[nH]c(-c4ccccc4)nc23)c(-c2ccc(F)cc2)n1` [Example 131, 6-{3-(4-fluorophenyl)-1-[2-(methanesulfonyl)ethyl]-1H-pyrazol-4-yl}-8-phenyl-9H-purine], for which the IC50 with BaF3_EGFR d19/CS cells came to 162 nM; in assay [1], 1.04 nM; in the assay with BaF3_EGFR LR/CS cells, 81.9 nM; in the assay on Ba/F3_EGFR WT cells it was 3000 nM.
The corresponding values for `CC(C)(O)Cn1cc(-c2ncnc3oc(-c4ccc(F)cn4)cc23)c(-c2ccc(F)cc2)n1` [Example 277, 1-{3-(4-fluorophenyl)-4-[6-(5-fluoropyridin-2-yl)furo[2,3-d]pyrimidin-4-yl]-1H-pyrazol-1-yl}-2-methylpropan-2-ol] are 40 nM, 0.332 nM, 74.4 nM and 1500 nM.
The matching figures for `CC(C)(O)CCn1cc(-c2ncnc3[nH]c(-c4ccccc4)nc23)c(-c2ccc(F)cc2)n1` [Example 145, 4-[3-(4-fluorophenyl)-4-(8-phenyl-9H-purin-6-yl)-1H-pyrazol-1-yl]-2-methylbutan-2-ol]: 114 nM, 0.55 nM, 83.6 nM and 3210 nM.
Regarding `Cn1cc(-c2cc3c(-c4cn(CC(C)(C)O)nc4-c4ccc(F)cc4)ncnc3o2)cn1` [Example 261, 1-{3-(4-fluorophenyl)-4-[6-(1-methyl-1H-pyrazol-4-yl)furo[2,3-d]pyrimidin-4-yl]-1H-pyrazol-1-yl}-2-methylpropan-2-ol], the IC50 in the assay on BaF3_EGFR d19/CS cells turned out to be 10.1 nM; in assay [1], 0.206 nM; in the assay with BaF3_EGFR LR/CS cells, 4.53 nM; in the assay on Ba/F3_EGFR WT cells it was 550 nM.
The matching figures for `CC(C)(O)Cn1cc(-c2ncnc3oc(-c4cnn5c4OCCC5(C)C)cc23)c(-c2ccc(F)cc2)n1` [Example 284, 1-(4-(6-(7,7-dimethyl-6,7-dihydro-5H-pyrazolo[5,1-b][,3]oxazin-3-yl)furo[2,3-d]pyrimidin-4-yl)-3-(4-fluorophenyl)-1H-pyrazol-1-yl)-2-methylpropan-2-ol]: 10.2 nM, 0.203 nM, 11.2 nM and 1000 nM.
The corresponding values for `Cn1cnc(-c2cc3c(-c4cn(CCC#N)nc4-c4ccc(F)cc4)ncnc3o2)c1` [Example 265, 3-{3-(4-fluorophenyl)-4-[6-(1-methyl-1H-imidazol-4-yl)furo[2,3-d]pyrimidin-4-yl]-1H-pyrazol-1-yl}propanenitrile] are 1.46 nM, 0.078 nM, 1.43 nM and 69.9 nM.
In the case of `CC1(C)C[C@@H](Cn2cc(-c3ncnc4oc(-c5ccccc5)cc34)c(-c3ccc(F)cc3)n2)O1` (single isomer, unassigned) [Example 222], the IC50 came out at 182 nM in the assay on BaF3_EGFR d19/CS cells, 0.59 nM in assay [1], 76.8 nM in the assay with BaF3_EGFR LR/CS cells and 1250 nM in the assay on Ba/F3_EGFR WT cells.
With `Cn1cc(-c2cc3c(-c4cn([C@H]5C[C@@H](S(C)(=O)=O)C5)nc4-c4ccc(F)cc4)ncnc3o2)cn1` [Example 256, 4-{3-(4-fluorophenyl)-1-[(1s,3s)-3-(methanesulfonyl)cyclobutyl]-1H-pyrazol-4-yl}-6-(1-methyl-1H-pyrazol-4-yl)furo[2,3-d]pyrimidine], the IC50 with BaF3_EGFR d19/CS cells worked out at 11.2 nM; in assay [1], 0.19 nM; in the assay on BaF3_EGFR LR/CS cells it was 5.23 nM; in the assay on Ba/F3_EGFR WT cells it was 403 nM.
The matching figures for `CN1CC[C@H](n2cc(-c3ncnc4oc(-c5ccccc5)cc34)c(-c3ccc(F)cc3)n2)C1=O` (single isomer, unassigned) [Example 167]: 162 nM, 0.83 nM, 32.8 nM and 1640 nM.
The matching figures for `Cc1ccc(-c2cc3c(-c4cn(C5CS(=O)(=O)C5)nc4-c4ccc(F)cc4)ncnc3o2)c(C)n1` [Example 240, 3-{4-[6-(2,6-dimethylpyridin-3-yl)furo[2,3-d]pyrimidin-4-yl]-3-(4-fluorophenyl)-1H-pyrazol-1-yl}-16-thietane-1,1-dione]: 66.4 nM, 0.34 nM, 57.9 nM and 7560 nM.
The matching figures for `O=S1(=O)CC(n2cc(-c3ncnc4oc(-c5ccncn5)cc34)c(-c3ccc(F)cc3)n2)C1` [Example 196, 3-{3-(4-fluorophenyl)-4-[6-(pyrimidin-4-yl)furo[2,3-d]pyrimidin-4-yl]-1H-pyrazol-1-yl}-1λ6-thietane-1,1-dione]: 133 nM, 0.89 nM, 212 nM and 1740 nM.
In the case of `Cn1ccnc1-c1cc2c(-c3cn(C4CS(=O)(=O)C4)nc3-c3ccc(F)cc3)ncnc2o1` [Example 201, 3-{3-(4-fluorophenyl)-4-[6-(1-methyl-1H-imidazol-2-yl)furo[2,3-d]pyrimidin-4-yl]-1H-pyrazol-1-yl}-1λ6-thietane-1,1-dione], the IC50 with BaF3_EGFR d19/CS cells was found to be 142 nM; in assay [1], 0.52 nM; in the assay on BaF3_EGFR LR/CS cells, 200 nM; in the assay with Ba/F3_EGFR WT cells, 1580 nM.
The matching figures for `Cc1ccccc1-c1cc2c(-c3cn(C4CS(=O)(=O)C4)nc3-c3ccc(F)cc3)ncnc2o1` [Example 245, 3-{3-(4-fluorophenyl)-4-[6-(2-methylphenyl)furo[2,3-d]pyrimidin-4-yl]-1H-pyrazol-1-yl}-16-thietane-1,1-dione]: 69.9 nM, 0.31 nM, 82.1 nM and 3210 nM.
The matching figures for `O=S1(=O)CC(n2cc(-c3ncnc4oc(C#CC5CNC5)cc34)c(-c3ccc(F)cc3)n2)C1` [Example 133, 3-[4-{6-[(azetidin-3-yl)ethynyl]furo[2,3-d]pyrimidin-4-yl}-3-(4-fluorophenyl)-1H-pyrazol-1-yl]-1λ6-thietane-1,1-dione]: 1190 nM, 7.1 nM, 2190 nM and 7550 nM.
